Measured values from patent US10408843B2, “Compositions and methods for detecting S-nitrosylation and S-sulfinylation” (The Regents of the University of Michigan, priority 2013, dated 2019).

Legend:
[1] = target: T1, Recombinant human GAPDH (Homo sapiens, UniProt P04406); assay: Labeling of recombinant GAPDH (in-gel fluorescence, LC-MS); assay type: biochemical; details: biotin-thiosulfonate modified tryptic peptide
T1 construct: 6His; made in house; host or cells: E. coli BL21
Method: FIG. 14. Profiling fluorescein-SO2H reactivity and selectivity on S-nitrosylated GAPDH. Recombinant human GAPDH was resuspended in 6 M urea/PBS, treated with 50 mM iodoacetamide for 30 minutes, and mixed with dimedone, ascorbate, peroxide or NO donor (5 minutes). Fluorescein-SO2H (500 μM) was then added to the GAPDH sample for 45 minutes. S-nitrosylated human GAPDH labeling increases upon incubation with the NO donor MAHMA-NONOate, and decreases following treatment with ascorbate. […] Fluorescein-SO2H labeling is unaffected by pre-incubation with peroxide or dimedone.
FIG. 15. Biotin-SO2H reacts with human GAPDH and forms a thiosulfonate. Recombinant human GADPH was labeled with biotin-SO2H for site-specific analysis of S-nitrosylation by high-resolution mass spectrometry.
Given the efficient and selective conjugation of sulfinic acids and nitrosothiols, recombinant human GAPDH were next purified for targeted analysis of S-sulfinylation with biotin-SO2H. […] Biotin-SO2H-labeled GAPDH protein was digested with trypsin and analyzed by high-resolution mass spectrometry, identifying a biotin-thiosulfonate modified peptide encompassing the GAPDH catalytic cysteine (FIG. 15). […] These studies confirm direct detection of native of S-sulfinylation by sulfinic acid probes for mass spectrometry analysis.
Purified human GAPDH was diluted to 0.2 mg/mL in phosphate buffered saline (pH 7.3), and treated with 20 mM iodoacetamide for 30 minutes. Next, the sample was treated with 100 μM biotin-SO2H. Purified human DJ-1 was diluted to 0.2 mg/mL in PBS, and incubated with 20 mM iodoacetamide to alkylated free thiols. Next, the sample was treated with 2 mM hydrogen peroxide for 20 minutes to promote Cys106 sulfinic acid formation. […] Eluted peptides were analyzed using a Waters Synapt G2-S HDMS time-of-flight mass spectrometer in positive mode. […] MS data was searched using Waters Protein Lynx Global Server v3.0 using the exact mass calculated for the cysteine thiosulfonate modification.

[2] = tested on: 293T cell lysates; assay: SILAC quantitative mass spectrometry of biotin-SO2H enrichment; assay type: biochemical, human; details: quantified in ≥3 replicates, ≥3 quantified peptides; 400 μM probe
Method: FIG. 16. Quantitative analysis of biotin-SO2H enrichment in 293T cell lysates. Samples were prepared in two sets, one with biotin-SO2H in the “Light” matched with biotin-SO3H in the “Heavy” (N=2), and the other in reverse (N=2). Each was ran as two technical replicated and SILAC ratios (biotin-SO2H/biotin-SO3H) were combined across experiments. “Directions Detected” describes the set of SILAC samples where the protein was quantified. FORWARD refers to biotin-SO2H (light)/biotin-SO3H (heavy), and REVERSE is the opposite direction, biotin-SO2H (heavy)/biotin-SO3H (light). […] Label-free quantification was performed using the Top3 method from the biotin-SO2H labeled pair.
Next, biotin-SO2H labeling was combined with stable-isotope labeling with amino acids in cell culture (SILAC) for quantitative mass spectrometry annotation of endogenous S-sulfinylation in mammalian cells. […] Peptides were analyzed using data-independent acquisition methods in combination with ion mobility separation (HDMS^E) and mobility-dependent collision energy assignment for enhanced fragmentation (see, e.g., Distler, U. et al. Nat Methods (2013)). Through a combination of 4 biological replicates, each with 2 technical replicates, a total of 992 proteins were identified with SILAC ratios >5 (biotin-SO2H/biotin-SO3H), quantified in ≥3 replicates, and represented by ≥3 quantified peptides (FIG. 16). […]

T1 sequence (P04406 whole entry): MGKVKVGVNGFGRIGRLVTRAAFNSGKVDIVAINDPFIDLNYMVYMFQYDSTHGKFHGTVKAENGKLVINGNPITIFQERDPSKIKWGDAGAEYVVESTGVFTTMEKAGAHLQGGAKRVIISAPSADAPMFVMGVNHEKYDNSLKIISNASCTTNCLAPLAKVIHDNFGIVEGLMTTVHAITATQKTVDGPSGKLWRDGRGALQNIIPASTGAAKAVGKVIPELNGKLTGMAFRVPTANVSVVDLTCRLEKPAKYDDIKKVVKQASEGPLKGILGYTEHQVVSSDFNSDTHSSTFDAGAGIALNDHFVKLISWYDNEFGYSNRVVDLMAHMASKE

O=C(CCCC[C@@H]1SC[C@@H]2NC(=O)N[C@@H]21)NCCS(=O)O [biotin-SO2H, 2-(5-((3aS,4S,6aR)-2-oxohexahydro-1H-thieno[3,4-d]imidazol-4-yl)pentanamido)ethanesulfinic Acid]
modified cysteine of GAPDH identified by MS/MS [1]: Cys156
proteins identified with SILAC ratios >5 (biotin-SO2H/biotin-SO3H) [2]: 992 proteins
